Test results: ChEMBL document CHEMBL1139118, “A novel, non-substrate-based series of glycine type 1 transporter inhibitors derived from high-throughput screening” (Bioorg Med Chem Lett, 2007)

Tests used:
[1] = target: 5-hydroxytryptamine receptor 1B (Homo sapiens, UniProt P28222); experiment: Displacement of [3H]5-hydroxytrytamine from human 5HT1B receptor expressed in HEK293 cells; format: cell-based
[2] = target: T1, Sodium- and chloride-dependent glycine transporter 1 (Homo sapiens, UniProt P48067); experiment: Displacement of [3H]NPTS from human GlyT1C expressed in HEK293 cells; format: cell-based
T1 sequence (P48067 whole entry): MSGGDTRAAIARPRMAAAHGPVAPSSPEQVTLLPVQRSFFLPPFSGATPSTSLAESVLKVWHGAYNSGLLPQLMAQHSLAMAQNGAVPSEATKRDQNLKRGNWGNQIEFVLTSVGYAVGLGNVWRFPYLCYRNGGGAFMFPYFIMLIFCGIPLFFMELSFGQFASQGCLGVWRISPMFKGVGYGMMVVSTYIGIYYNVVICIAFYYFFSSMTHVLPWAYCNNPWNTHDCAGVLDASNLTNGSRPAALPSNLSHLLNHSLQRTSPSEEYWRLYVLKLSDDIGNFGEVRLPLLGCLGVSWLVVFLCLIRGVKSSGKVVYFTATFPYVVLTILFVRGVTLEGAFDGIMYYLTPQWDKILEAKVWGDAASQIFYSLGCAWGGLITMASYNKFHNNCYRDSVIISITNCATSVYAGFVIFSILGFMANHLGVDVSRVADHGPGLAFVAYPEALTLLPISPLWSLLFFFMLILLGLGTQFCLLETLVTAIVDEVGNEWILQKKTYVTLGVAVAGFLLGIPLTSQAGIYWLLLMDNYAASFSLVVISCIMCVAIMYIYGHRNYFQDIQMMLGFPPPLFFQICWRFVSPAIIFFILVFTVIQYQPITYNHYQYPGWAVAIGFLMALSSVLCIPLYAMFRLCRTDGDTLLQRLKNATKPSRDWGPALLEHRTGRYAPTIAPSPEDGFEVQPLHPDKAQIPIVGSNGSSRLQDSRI

[3] = target: Voltage-gated inwardly rectifying potassium channel KCNH2 (Homo sapiens, UniProt Q12809); experiment: Displacement of [3H]dofetilide from human ERG channel expressed in HEK293 cells
[4] = target: CYP2D6 (Homo sapiens, UniProt P10635); experiment: Inhibition of human recombinant CYP2D6 at 1.5 uM; format: ADME
[5] = Metabolic stability in human liver microsomes assessed as half life; format: ADME, Microsome
[6] = target: T2, Sodium- and chloride-dependent glycine transporter 2 (Homo sapiens, UniProt Q9Y345); experiment: Inhibition of [3H]glycine uptake at human GlyT2 expressed in HEK293 cells; format: cell-based
T2 sequence (Q9Y345 whole entry): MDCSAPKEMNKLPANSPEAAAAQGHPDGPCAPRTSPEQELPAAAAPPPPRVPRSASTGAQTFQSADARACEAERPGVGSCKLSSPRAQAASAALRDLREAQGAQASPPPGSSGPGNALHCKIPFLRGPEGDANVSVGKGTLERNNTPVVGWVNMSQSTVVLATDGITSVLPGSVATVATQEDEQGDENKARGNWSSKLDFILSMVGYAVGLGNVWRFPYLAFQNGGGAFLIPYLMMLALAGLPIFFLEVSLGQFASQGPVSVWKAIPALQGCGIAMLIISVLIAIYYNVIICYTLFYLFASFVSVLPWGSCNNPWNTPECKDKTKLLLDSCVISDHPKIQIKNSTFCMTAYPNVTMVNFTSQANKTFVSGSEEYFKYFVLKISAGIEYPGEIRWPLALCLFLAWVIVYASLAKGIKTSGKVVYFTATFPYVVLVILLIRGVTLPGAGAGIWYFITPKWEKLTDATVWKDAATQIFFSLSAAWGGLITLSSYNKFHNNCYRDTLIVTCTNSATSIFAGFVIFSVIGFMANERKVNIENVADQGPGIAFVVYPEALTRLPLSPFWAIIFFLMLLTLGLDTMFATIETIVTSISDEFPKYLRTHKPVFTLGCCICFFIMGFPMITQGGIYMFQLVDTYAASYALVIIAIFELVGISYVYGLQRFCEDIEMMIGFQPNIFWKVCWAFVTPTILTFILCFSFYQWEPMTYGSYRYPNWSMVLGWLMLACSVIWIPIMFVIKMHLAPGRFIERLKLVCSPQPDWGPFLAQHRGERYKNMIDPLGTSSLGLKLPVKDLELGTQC

Chain of 5-hydroxytryptamine receptor 1B (P28222 whole entry): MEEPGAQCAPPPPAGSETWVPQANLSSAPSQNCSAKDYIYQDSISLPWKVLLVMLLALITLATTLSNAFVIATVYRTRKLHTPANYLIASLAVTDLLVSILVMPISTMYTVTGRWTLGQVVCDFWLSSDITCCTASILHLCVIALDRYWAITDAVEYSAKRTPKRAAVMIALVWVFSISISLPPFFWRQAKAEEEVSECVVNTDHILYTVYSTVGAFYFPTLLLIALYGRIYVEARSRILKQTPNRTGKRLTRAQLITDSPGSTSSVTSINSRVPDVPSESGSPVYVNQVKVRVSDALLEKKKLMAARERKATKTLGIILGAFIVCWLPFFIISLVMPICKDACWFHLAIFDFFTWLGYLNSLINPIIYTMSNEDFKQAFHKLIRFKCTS
Chain of CYP2D6 (P10635 whole entry): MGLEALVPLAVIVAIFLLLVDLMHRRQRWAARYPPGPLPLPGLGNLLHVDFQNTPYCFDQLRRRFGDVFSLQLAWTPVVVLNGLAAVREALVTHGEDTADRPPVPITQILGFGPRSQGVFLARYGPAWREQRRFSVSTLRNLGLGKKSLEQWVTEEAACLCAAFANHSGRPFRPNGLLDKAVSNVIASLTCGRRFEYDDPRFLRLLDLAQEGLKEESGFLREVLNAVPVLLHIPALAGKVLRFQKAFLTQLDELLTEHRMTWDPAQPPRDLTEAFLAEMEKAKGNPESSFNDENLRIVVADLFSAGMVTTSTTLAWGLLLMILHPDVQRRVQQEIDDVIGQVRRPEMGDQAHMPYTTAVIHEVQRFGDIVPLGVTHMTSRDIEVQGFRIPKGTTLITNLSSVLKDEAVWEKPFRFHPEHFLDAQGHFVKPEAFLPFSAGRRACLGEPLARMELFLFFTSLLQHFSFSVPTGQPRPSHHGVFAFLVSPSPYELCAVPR
Chain of Voltage-gated inwardly rectifying potassium channel KCNH2 (Q12809 whole entry): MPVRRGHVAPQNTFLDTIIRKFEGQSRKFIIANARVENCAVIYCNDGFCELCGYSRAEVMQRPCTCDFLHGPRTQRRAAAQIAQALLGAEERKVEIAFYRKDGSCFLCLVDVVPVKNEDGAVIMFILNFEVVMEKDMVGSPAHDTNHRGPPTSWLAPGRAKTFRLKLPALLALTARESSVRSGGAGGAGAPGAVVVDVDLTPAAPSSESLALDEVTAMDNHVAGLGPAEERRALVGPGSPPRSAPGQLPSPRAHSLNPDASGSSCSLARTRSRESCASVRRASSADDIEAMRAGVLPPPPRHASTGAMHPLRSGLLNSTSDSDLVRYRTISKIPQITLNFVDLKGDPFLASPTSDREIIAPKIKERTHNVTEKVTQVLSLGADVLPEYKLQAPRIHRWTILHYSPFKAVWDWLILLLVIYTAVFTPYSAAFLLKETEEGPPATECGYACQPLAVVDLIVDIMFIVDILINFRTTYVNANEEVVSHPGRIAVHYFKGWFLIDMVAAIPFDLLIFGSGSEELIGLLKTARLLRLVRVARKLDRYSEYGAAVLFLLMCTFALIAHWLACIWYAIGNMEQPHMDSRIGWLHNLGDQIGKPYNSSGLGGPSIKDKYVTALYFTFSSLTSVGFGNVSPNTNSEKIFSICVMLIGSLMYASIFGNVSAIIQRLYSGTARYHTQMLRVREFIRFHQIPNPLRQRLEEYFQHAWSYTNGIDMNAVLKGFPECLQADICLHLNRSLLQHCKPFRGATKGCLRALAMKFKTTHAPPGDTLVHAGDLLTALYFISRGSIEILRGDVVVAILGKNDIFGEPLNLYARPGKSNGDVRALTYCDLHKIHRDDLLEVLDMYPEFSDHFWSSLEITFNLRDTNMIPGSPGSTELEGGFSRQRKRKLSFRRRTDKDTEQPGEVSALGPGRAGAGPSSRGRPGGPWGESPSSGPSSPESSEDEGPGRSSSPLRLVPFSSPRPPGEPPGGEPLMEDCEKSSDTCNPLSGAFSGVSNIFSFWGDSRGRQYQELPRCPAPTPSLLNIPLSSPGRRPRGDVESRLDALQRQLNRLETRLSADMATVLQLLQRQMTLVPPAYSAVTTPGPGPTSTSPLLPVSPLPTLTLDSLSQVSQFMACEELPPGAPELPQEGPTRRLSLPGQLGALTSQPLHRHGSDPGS

Row | SMILES | Ki [1] [nM] | Ki [2] [nM] | Ki [3] [nM] | inhibition at 1.5 µM [4] [%] | half-life [5] [min] | IC50 [6] [nM] | IC50 [2] [nM]
1 | CC(C)N1CCN(C2CCc3ccc(OCc4noc(-c5ccc(Cl)cc5)n4)cc32)CC1 (configuration not stated) | 31 | 394 | 98.1 | 43 | 13 |  | 
2 | CC1CC(N2CCN(C3CCc4ccc(OCc5noc(-c6ccc(Cl)cc6)n5)cc43)CC2)CC1C (configuration not stated) | 414 | 134 |  | 29 | 7 |  | 
3 | OCC1(N2CCN(C3CCc4ccc(OCc5noc(-c6ccccc6F)n5)cc43)CC2)CCCC1 (configuration not stated) |  | 61.4 |  | 85 | 14 | 31.5 | 
4 | OCC1CCCN(CCCC2CCCc3ccc(OCc4ccc(-c5ccccc5F)cn4)cc32)C1 (configuration not stated) |  | 11 | 410 | 30 | 24 | 401 | 
5 | CCN(Cc1cccc(OCc2noc(-c3ccccc3F)n2)c1)C1CCN(C2CC(C)C(C)C2)C1 (configuration not stated) |  | 85.3 | 222 | 84 | 26 | 857 | 
6 | CN1CCN(c2cccc3ccc(OCc4noc(-c5ccc(Cl)cc5)n4)cc23)CC1 | < 1 | 500 |  | 75 | 22 |  | 
7 | OCC1(N2CCN(C3CCc4ccc(OCc5noc(-c6ccc(Cl)cc6)n5)cc43)CC2)CCCC1 (configuration not stated) | 1490 |  |  | 47 |  |  | 
8 | Fc1ccccc1-c1nc(COc2ccc3c(c2)C(N2CCN(C4CCCC4)CC2)CC3)no1 (configuration not stated) |  | 66.8 |  | 94 | 12 | 531 | 
9 | OCC1(NCCCC2CCc3ccc(OCc4noc(-c5ccc(Cl)cc5)n4)cc32)CCCC1 (configuration not stated) | > 300 | 108 | 525 | 70 | 12 |  | 
10 | OCC1CCCN(CCCC2CCCc3ccc(OCc4noc(-c5ccccc5F)n4)cc32)C1 (configuration not stated) |  | 10.2 | 1300 | 43 | 17 | 385 | 
11 | OCC1CCCN(CCCC2CCCc3ccc(OCc4noc(-c5ccc(Cl)cc5)n4)cc32)C1 (stereo in doubt; 8) | > 1000 | 15.9 | 271 | 96 | 22 | 319 | 
12 | OCC1CCCN(CCCC2CCCc3ccc(OCc4noc(-c5ccc(Cl)cc5)n4)cc32)C1 (stereo in doubt; 8A) |  |  | 381 |  |  |  | 38
13 | OCC1CCCN(CCCC2CCCc3ccc(OCc4noc(-c5ccc(Cl)cc5)n4)cc32)C1 (stereo in doubt; 8B) |  |  | 214 |  |  |  | 24
14 | OCC1CCCN(CCCC2CCCc3ccc(OCc4noc(-c5ccc(Cl)cc5)n4)cc32)C1 (stereo in doubt; 8C) |  |  | 219 |  |  |  | 31
15 | OCC1CCCN(CCCC2CCCc3ccc(OCc4noc(-c5ccc(Cl)cc5)n4)cc32)C1 (stereo in doubt; 8D) |  |  | 206 |  |  |  | 26
